Experimental data: ChEMBL document CHEMBL1201862, “PubChem BioAssay data set” (2004)
Activity calls are given as the source filed them.

Experiments:
[1] = biological target: T1, High affinity choline transporter 1 (Homo sapiens, UniProt Q9GZV3); assay: human choline transporter blockers, potency – cell-based, 5-point CRC, membrane potential dye, dose response (AID 504840); type: functional
T1 sequence (Q9GZV3 whole entry): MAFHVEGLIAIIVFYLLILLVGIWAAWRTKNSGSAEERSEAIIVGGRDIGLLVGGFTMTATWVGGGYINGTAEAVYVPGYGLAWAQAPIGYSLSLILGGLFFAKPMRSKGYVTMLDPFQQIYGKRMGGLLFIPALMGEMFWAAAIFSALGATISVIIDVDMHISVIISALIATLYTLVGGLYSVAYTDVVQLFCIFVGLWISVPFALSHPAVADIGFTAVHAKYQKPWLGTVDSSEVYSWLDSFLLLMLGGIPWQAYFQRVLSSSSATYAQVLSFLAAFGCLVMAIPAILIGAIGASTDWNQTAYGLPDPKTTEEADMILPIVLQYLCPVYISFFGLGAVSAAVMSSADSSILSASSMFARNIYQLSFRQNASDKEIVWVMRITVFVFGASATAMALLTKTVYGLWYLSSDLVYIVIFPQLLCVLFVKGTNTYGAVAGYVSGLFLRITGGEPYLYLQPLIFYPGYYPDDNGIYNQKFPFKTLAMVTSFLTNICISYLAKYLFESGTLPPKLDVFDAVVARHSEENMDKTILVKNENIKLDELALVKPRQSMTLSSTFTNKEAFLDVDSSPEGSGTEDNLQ

Fatty acid synthase [2] = biological target: T2, Fatty acid synthase (Homo sapiens, UniProt P49327); assay: inhibition of human FAS-TE enzyme activity – biochemical, kinetic fluorescence intensity, dose response (AID 624326); type: functional;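 also: rate of fluorescence rise from hydrolysis of a fluorogenic O-methyl fluorescein ester substrate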
T2 sequence (P49327 whole entry): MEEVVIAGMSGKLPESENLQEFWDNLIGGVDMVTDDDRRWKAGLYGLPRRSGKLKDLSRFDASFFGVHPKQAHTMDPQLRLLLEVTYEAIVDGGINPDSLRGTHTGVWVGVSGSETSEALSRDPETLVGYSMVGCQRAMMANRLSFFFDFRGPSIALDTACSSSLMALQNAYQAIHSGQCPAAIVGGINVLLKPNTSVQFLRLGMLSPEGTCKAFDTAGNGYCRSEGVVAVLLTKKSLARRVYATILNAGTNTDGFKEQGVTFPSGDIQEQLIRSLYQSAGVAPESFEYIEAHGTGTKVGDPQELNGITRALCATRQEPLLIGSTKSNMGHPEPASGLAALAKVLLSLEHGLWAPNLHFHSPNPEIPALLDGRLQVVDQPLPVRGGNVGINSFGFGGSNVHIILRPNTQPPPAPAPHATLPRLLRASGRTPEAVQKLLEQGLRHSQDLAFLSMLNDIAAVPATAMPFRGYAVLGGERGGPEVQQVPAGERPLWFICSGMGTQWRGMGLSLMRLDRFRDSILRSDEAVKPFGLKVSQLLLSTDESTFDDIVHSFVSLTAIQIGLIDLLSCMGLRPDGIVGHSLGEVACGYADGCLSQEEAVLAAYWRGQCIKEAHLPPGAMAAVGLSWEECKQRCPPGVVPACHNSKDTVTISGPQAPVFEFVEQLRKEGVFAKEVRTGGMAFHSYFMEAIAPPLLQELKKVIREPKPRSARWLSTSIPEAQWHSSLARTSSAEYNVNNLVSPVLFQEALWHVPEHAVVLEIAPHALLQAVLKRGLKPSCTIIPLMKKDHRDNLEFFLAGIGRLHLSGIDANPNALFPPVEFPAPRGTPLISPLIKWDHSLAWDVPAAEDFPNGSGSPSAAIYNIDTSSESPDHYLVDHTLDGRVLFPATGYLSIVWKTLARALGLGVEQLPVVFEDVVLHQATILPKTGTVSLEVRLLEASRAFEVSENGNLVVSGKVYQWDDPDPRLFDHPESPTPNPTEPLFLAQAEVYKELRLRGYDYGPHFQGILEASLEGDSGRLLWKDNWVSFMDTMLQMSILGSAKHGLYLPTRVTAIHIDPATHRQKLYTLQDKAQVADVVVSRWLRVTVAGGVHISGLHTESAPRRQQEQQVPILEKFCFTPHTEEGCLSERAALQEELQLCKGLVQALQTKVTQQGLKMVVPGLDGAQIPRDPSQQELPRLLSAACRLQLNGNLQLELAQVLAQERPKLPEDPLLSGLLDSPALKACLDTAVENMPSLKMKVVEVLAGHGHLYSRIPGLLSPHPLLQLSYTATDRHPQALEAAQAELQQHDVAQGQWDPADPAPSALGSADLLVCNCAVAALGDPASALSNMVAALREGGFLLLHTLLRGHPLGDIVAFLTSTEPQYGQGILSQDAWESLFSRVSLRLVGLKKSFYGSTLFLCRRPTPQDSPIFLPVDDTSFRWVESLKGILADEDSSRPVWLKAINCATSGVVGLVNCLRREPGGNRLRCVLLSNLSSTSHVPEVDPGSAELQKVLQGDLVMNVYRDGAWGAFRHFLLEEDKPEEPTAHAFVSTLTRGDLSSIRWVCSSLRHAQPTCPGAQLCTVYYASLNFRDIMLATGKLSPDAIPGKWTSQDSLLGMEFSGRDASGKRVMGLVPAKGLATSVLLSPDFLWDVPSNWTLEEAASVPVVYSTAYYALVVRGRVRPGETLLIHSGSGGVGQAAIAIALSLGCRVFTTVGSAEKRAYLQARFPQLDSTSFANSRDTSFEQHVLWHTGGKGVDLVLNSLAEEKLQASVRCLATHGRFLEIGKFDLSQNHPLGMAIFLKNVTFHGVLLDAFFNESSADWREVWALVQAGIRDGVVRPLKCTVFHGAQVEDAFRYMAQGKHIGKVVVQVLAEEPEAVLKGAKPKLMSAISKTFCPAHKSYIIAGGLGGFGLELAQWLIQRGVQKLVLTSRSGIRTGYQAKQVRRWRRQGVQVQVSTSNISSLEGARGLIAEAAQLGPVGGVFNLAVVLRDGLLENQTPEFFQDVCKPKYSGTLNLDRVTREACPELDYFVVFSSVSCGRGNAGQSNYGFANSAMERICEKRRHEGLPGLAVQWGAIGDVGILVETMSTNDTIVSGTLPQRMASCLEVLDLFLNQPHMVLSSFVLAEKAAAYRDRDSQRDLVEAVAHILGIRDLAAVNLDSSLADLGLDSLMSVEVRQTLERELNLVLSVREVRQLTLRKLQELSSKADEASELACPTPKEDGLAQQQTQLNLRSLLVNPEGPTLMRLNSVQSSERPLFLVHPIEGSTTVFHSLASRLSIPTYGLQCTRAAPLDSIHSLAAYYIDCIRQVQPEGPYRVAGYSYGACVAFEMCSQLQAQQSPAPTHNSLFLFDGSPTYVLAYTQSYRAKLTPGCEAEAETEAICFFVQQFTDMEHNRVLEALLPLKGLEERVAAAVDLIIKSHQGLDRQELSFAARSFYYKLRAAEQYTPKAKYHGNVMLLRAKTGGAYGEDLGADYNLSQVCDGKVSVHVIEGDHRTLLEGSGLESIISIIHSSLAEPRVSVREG

Fatty acid synthase [3] = biological target: T2, Fatty acid synthase; assay: inhibition of human FAS-TE enzyme activity – biochemical, endpoint fluorescence intensity, uHTS hits, dose response (AID 624327); type: functional;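 also: fluorescence from hydrolysis of an O-methyl fluorescein acyl ester substrate by the enzyme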
[4] = biological target: T3, Heat shock factor protein 1 (Mus musculus, UniProt P38532); assay: decrease of HSF1-responsive luciferase luminescence – cell-based, NIH3T3, dose retest, confirmation (AID 2382); type: functional;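 also: NIH3T3 fibroblasts with HSF1-driven luciferase reporter stressed by proteasome inhibitor MG132; luminescence from HSF1-driven luciferase expression after 8 hours of MG132 stress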
T3 sequence (P38532 whole entry): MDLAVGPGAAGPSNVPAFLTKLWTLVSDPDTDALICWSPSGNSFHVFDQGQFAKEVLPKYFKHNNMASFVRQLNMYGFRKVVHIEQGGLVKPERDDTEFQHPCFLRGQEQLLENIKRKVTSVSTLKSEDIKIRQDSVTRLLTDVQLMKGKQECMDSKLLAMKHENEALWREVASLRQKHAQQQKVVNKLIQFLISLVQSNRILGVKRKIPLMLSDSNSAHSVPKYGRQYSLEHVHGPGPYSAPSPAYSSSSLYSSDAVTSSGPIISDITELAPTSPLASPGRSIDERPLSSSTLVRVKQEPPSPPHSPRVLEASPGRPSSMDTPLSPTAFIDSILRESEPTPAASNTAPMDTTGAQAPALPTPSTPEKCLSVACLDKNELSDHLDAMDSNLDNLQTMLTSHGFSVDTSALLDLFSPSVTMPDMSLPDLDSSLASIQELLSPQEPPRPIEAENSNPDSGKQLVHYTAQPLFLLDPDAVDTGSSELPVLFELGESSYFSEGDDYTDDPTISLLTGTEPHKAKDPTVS

[5] = biological target: T4, Rac GTPase-activating protein 1 (Homo sapiens, UniProt Q9H0H5); assay: blockers of MgcRacGAP-driven Rac1 GTP hydrolysis – biochemical, ADP Hunter fluorescence, primary and confirmatory, confirmation (AID 624330); type: functional
T4 sequence (Q9H0H5 whole entry): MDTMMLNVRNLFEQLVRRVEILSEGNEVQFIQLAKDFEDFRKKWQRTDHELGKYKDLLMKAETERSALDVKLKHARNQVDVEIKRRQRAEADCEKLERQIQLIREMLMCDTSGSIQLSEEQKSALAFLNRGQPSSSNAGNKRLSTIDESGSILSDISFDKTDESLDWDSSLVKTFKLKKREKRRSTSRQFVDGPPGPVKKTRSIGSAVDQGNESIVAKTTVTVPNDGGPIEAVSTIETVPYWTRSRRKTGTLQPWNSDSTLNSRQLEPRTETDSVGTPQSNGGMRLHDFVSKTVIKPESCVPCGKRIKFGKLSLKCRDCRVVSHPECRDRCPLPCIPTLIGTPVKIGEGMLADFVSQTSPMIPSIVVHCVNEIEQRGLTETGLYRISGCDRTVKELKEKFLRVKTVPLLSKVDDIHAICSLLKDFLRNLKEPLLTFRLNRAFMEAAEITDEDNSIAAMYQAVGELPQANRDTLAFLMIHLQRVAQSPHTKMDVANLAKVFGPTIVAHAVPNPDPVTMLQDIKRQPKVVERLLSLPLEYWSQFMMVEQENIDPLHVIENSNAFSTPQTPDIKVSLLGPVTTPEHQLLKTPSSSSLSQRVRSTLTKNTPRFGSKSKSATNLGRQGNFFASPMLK

[6] = biological target: FAD-linked sulfhydryl oxidase ALR (Homo sapiens, UniProt P55789); assay: ALR-catalysed DTT oxidation blockers – biochemical, H2O2 detection, luminescence, cherry-pick, dose response (AID 493248)
Sequence of FAD-linked sulfhydryl oxidase ALR (P55789 whole entry, the tested form may be a part): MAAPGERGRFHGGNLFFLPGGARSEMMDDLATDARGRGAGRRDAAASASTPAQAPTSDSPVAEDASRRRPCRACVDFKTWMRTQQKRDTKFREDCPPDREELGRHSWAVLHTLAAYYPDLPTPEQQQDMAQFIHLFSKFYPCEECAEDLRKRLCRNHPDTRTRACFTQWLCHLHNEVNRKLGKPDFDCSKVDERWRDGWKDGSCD

[7] = off-target signal loss in HeLa-CEM21 co-culture – HeLa F-luc CTL cells, cherry-picked, counter-screen for HIV-1 Env fusion inhibitor project, dose response (AID 652040); type: functional, cell-based;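 also: potency for signal decrease marking cytotoxic or nonspecific inhibition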
[8] = blockers of HIV-1 envelope-mediated cell-cell fusion – cherry-pick, dose response (AID 652057); type: functional, cell-based
[9] = blockers of HIV-1 ZM109 envelope-driven cell-cell fusion – HeLa effector, CEM target cells, luciferase, cherry-pick, dose response (AID 652058); type: functional, cell-based;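 also: luciferase signal from HIV-1 Env mediated cell-cell fusion of effector and target cells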
[10] = luciferase reporter signal suppression in cells – H4 neuroglioma cells, luminescence, dose response (AID 1990); type: functional, cell-based
[11] = HIV-1 AD8 envelope cell-cell fusion blockers – cherry-pick, dose response (AID 652062); type: functional, cell-based;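 also: luciferase signal from cell-cell fusion driven by HIV-1 clade B AD8 Env; potency is for inhibitors of fusion seen as a drop in luminescence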
[12] = alpha-synuclein stem-loop luciferase translation blockers – H4 neuroglioma cells, luminescence, confirmation (AID 1988); type: functional, cell-based
Protein skinhead-1 = biological target: T5, Protein skinhead-1 (Caenorhabditis elegans, UniProt P34707); type: functional
T5 sequence (P34707 whole entry): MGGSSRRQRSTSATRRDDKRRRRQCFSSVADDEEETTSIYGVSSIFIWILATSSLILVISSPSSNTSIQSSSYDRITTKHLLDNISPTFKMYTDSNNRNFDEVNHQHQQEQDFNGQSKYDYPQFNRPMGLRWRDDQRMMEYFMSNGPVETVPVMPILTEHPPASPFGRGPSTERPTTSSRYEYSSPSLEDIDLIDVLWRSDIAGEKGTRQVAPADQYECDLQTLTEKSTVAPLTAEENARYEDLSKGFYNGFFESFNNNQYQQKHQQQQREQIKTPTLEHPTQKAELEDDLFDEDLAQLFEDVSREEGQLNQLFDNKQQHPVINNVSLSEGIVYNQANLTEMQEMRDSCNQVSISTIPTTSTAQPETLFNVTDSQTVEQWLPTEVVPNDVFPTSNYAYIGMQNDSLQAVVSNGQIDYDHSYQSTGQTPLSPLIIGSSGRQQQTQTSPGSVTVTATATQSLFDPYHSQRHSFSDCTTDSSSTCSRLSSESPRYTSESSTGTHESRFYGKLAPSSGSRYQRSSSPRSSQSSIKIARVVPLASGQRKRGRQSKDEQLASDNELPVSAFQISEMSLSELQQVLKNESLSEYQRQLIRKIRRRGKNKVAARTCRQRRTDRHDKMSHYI

Large T antigen = Large T antigen (Simian virus 40, UniProt P03070); type: functional, Betapolyomavirus macacae;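 also: Confirmatory-stage PubChem screen for compounds that inhibit SV40 T antigen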
Sequence of Large T antigen (P03070 whole entry): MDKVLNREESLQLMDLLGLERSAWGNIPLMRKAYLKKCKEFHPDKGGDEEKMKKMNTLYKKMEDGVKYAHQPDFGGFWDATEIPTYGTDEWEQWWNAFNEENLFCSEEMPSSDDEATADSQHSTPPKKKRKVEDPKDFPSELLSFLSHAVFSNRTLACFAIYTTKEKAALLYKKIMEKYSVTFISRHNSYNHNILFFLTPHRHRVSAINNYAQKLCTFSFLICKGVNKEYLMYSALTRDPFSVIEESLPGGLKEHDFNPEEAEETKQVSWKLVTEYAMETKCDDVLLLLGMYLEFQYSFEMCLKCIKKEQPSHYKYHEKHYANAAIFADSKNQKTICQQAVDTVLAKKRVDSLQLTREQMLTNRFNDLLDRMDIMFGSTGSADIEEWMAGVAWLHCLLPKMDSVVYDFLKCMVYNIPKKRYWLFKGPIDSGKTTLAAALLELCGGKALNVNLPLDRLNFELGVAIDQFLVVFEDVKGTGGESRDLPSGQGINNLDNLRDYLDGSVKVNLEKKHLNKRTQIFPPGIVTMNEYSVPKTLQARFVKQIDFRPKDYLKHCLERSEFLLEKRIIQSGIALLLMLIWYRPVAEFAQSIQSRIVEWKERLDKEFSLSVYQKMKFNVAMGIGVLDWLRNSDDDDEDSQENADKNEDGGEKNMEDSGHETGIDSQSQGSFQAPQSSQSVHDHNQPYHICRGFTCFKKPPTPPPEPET

Compound: COc1ccc(C(=O)N(C)Cc2ccc(C)o2)cc1OC1CCN(C(C)C)CC1
- IC50 [1]: 12.6 µM (active)

Compound: COc1ccc([N+](=O)[O-])cc1NC(=O)C1(c2ccccc2)CCOCC1
- IC50 (Fatty acid synthase [2]): 16.5 µM (active)
- IC50 (Fatty acid synthase [3]): 19.6 µM (active)

Compound: O=C(Nc1ccc(F)c(Cl)c1)C1CCN(S(=O)(=O)c2cccnc2)CC1
- EC50 [4]: > 195 µM (not active)
- IC50 [1]: 13.2 µM (active)

Compound: CCN(CC)c1ccc(NC(=O)CNCc2ccccc2Cl)c(C)c1
- IC50 [5]: 31 µM (active)
- AC50 [6]: 1.61 µM (active)
- IC50 [1]: 20.9 µM (active)

Compound: CC(NC(=O)C(C(=O)c1cccc([N+](=O)[O-])c1)n1cc(Cl)ccc1=O)c1ccccc1 (configuration not stated)
- IC50 (Fatty acid synthase [2]): 7.89 µM (active)
- IC50 (Fatty acid synthase [3]): 8.63 µM (active)

Compound: COc1ccc(C(=O)C(C)N(C(=O)c2ccc(Cl)cc2Cl)N2C(=O)C3C4C=CC(C4)C3C2=O)cc1 (configuration not stated)
- AC50 [7]: 4.93 µM (active)
- AC50 [8]: 2.94 µM (active)
- AC50 [9]: 2.82 µM (active)
- EC50 [10]: 16.7 µM (active)
- AC50 [11]: 13.1 µM (active)
- EC50 [12]: > 120 µM (not active)

Compound: COc1ccc(-c2cc(=O)oc3c(C)c(OCc4nn[nH]n4)ccc23)cc1
- IC50 (Fatty acid synthase [2]): 5.32 µM (active)
- IC50 (Fatty acid synthase [3]): 9.18 µM (active)

Compound: CC(=O)N1N=C(c2cccc([N+](=O)[O-])c2)OC1c1cccc(Br)c1 (configuration not stated)
- IC50 (Fatty acid synthase [2]): 11.9 µM (active)
- IC50 (Fatty acid synthase [3]): 9.14 µM (active)

Compound: Cc1cc(C)c2nc(C(F)(F)F)nc(N3CCN(C(=O)c4ccco4)CC3)c2c1
- AC50 [7]: 21.9 µM (active)
- AC50 [8]: 31.2 µM (active)
- AC50 [9]: 1.22 µM (active)
- AC50 [11]: 25.7 µM (active)
- IC50 (Protein skinhead-1): > 100 µM (inactive)

Compound: COC(=O)c1cc(C(=O)NCc2ccc3c(c2)OCO3)cc([N+](=O)[O-])c1
- IC50 (Fatty acid synthase [2]): 11.7 µM (active)
- IC50 (Fatty acid synthase [3]): 11.1 µM (active)

Compound: CC[C@@]12C(=O)N(c3ccccc3)C(=O)N1[C@H](c1ccc(OC)cc1)[C@@H]1C(=O)N(C(C)(C)C)C(=O)[C@@H]12
- AC50 [7]: 2.68 µM (active)
- AC50 [8]: 1.22 µM (active)
- AC50 [9]: 1.67 µM (active)
- AC50 [11]: 3.89 µM (active)

Compound: CN(C)c1ccc(C(=O)c2ccc(O)cc2O)cc1
- IC50 [1]: 11 µM (active)

Compound: COc1ccc(-c2nnn(CC(=O)N(Cc3cccs3)C(C)C(=O)NC3CCCC3)n2)cc1OC (configuration not stated)
- AC50 [7]: 24.8 µM (active)
- AC50 [8]: 5.2 µM (active)
- AC50 [9]: 9.35 µM (active)
- AC50 [11]: 10.1 µM (active)

Compound: O=C1NC(=O)N(c2ccc(Cl)cc2)C(=O)/C1=C/c1coc2ccc(O)cc2c1=O
- IC50 (Large T antigen): > 100 µM (active)
- IC50 [1]: 12.7 µM (active)

Compound: CCn1cc([N+](=O)[O-])c(C(=O)N2N=C(c3ccccc3)CC2c2ccc([N+](=O)[O-])cc2)n1 (configuration not stated)
- IC50 (Fatty acid synthase [2]): 13.2 µM (active)
- IC50 (Fatty acid synthase [3]): 15.6 µM (active)

Compound: CCC1(C)Cc2c(sc3nnn(CC(=O)Nc4ccccc4)c(=O)c23)CO1 (configuration not stated)
- IC50 [1]: 11.5 µM (active)

Compound: O=C1NCCN(Cc2cccc(Oc3ccccc3)c2)C1CC(=O)N1CCCCC1 (configuration not stated)
- AC50 [7]: 11.1 µM (active)
- AC50 [8]: 3.76 µM (active)
- AC50 [9]: 10.9 µM (active)
- AC50 [11]: 8.77 µM (active)

Compound: Cc1ccc(C(C(=O)NC2CCCCC2)N(C(=O)c2csnn2)C2CCCC2)o1 (configuration not stated)
- AC50 [7]: 13.5 µM (active)
- AC50 [8]: 14.1 µM (active)
- AC50 [9]: 3.63 µM (active)
- AC50 [11]: 6.08 µM (active)

Compound: O=C(Cn1ncc2c(=O)oc3ccccc3c21)N1CCC(N2CCCCC2)CC1
- AC50 [7]: 38.2 µM (active)
- AC50 [11]: 2.31 µM (active)

Compound: CC1CCN(C(=O)COC(=O)c2cc([N+](=O)[O-])ccc2N2CCOCC2)CC1
- IC50 (Fatty acid synthase [2]): 5.23 µM (active)
- IC50 (Fatty acid synthase [3]): 3.58 µM (active)

Compound: C[C@@]12CC(=O)NC1N(C(=O)c1cccc(C(F)(F)F)c1)C(c1ccccc1O)C2 (some centres not stated)
- AC50 [7]: 7.18 µM (active)
- AC50 [8]: 3.74 µM (active)
- AC50 [9]: 7.54 µM (active)
- AC50 [11]: 26.7 µM (active)

Compound: Cc1cc(=O)oc2cc(OCC(=O)N3CCN(C(C)c4ccccc4)CC3)c(Cl)cc12 (configuration not stated)
- IC50 (Fatty acid synthase [2]): 8.55 µM (active)
- IC50 (Fatty acid synthase [3]): 8.39 µM (active)

Compound: CN(c1ccccc1)S(=O)(=O)c1cccc(NC(=O)CCNC(=O)c2ccc([N+](=O)[O-])cc2)c1
- IC50 (Fatty acid synthase [2]): 9.59 µM (active)
- IC50 (Fatty acid synthase [3]): 7.63 µM (active)

Compound: CCOC(=O)[C@@H]1[C@H]2COc3cc(OC)ccc3[C@H]2N2C(=O)N(c3cccc(Cl)c3)C(=O)[C@@]12C
- IC50 (Fatty acid synthase [2]): 13.6 µM (active)
- IC50 (Fatty acid synthase [3]): 23.7 µM (inactive)

Compound: COc1ccc(CN(C)C(=O)COC(=O)c2cc([N+](=O)[O-])ccc2N2CCCC2)c(OC)c1OC
- IC50 (Fatty acid synthase [2]): 6.71 µM (active)
- IC50 (Fatty acid synthase [3]): 5.42 µM (active)

Compound: CCCn1c2ccccc2c2cnn(CC(=O)NCCN(C)C)c(=O)c21
- IC50 [1]: 11.5 µM (active)

Compound: Cc1ccc(S(=O)(=O)c2nnn3c2nc(N2CCC(C(N)=O)CC2)c2ccccc23)cc1C
- IC50 (Fatty acid synthase [2]): 8.84 µM (active)
- IC50 (Fatty acid synthase [3]): 11.4 µM (active)

Compound: CCc1nc2c(OCc3ccc(Cl)cc3)cccn2c1N(C=O)Cc1ccccc1
- IC50 (Fatty acid synthase [2]): 3.71 µM (active)
- IC50 (Fatty acid synthase [3]): 6.9 µM (active)

Compound: C/C=C/C=N/NC(=O)CN(c1ccc(Br)cc1)S(=O)(=O)c1ccccc1
- IC50 (Fatty acid synthase [2]): 10.1 µM (active)
- IC50 (Fatty acid synthase [3]): 10.6 µM (active)
